This is an account of results in patent US20260041094A1, “Compositions Comprising an Antimicrobial Boosting Agent” (Symrise AG, priority 2022, published 2026).

What all share (assay): Minimum Inhibitory Concentration (MIC) test, growth inhibition in 96 well plates via optical density
Common to all, as to assay type: cell-based

Experiment [1] has as its system Aspergillus brasiliensis. To be noted: lowest concentration with complete growth inhibition, A. brasiliensis; for MIC: Aspergillus brasiliensis, read-out: MIC in ppm Aspergillus brasiliensis. The protocol:
(§1) The Minimum Inhibitory Concentration (MIC) test is a test on growth inhibition. The estimation of MICs is executed in 96 well plates. Through the comparison of bacterial growth with positive and negative controls via optical density (OD), different concentrations of given test substances are evaluated.
(§2) Bacteria were cultivated under adjusted conditions based on information of the German Collection of Microorganisms and Cell Cultures (DSMZ) and stored in 10% or 50% glycerol prior to use. Afterwards, the following method was applied: Growth medium (according to microorganism) was added to each well of the microplate. Then, test-substances solved in DMSO, and strain specific benchmarks were added. Additionally, […] (water controls only with medium) and solvent controls (DMSO controls only with medium) were performed. Finally, the microorganisms were added in a concentration of 1 to 6×10^6 CFU/ml (CFU=colony forming units). The incubation of the microplates was carried out at appropriate conditions.
(§3) According to the resulting growth, substance concentrations are labelled either as inhibiting or not and MIC is defined as the lowest concentration where a complete growth inhibition is visible. Experiments at concentration limits (highest concentration labelled as growth and lowest concentration labelled as inhibiting) are performed at least twice.
(§4) Tested concentrations were adjusted to performance of test substance, but in general: 5,000 ppm steps between 50,000 ppm and 10,000 ppm, and 2500 ppm steps below 10,000 ppm, finishing with 1000 ppm. To enhance resolution of the approach, additional intermediate steps were included in individual cases. […] For ethylhexylglycerin and 1,2-pentanediol, pure substance without DMSO was tested.
(§5) To verify that the tested combinations act synergistically against microorganisms, corresponding experiments were conducted with Staphylococcus aureus, Candida albicans, Aspergillus brasiliensis, Pseudomonas aeruginosa and Escherichia coli. The synergistic activities of MAA-1 and different antimicrobial compounds in a mixture of 50% and 50% were determined by measuring the MIC of the mixture.
(§6) In order to calculate the synergy index with MIC values, the Kull equation was used as follows:
(§7) [formula] • wherein • SI is the Synergy Index according to Kull • MICA is the MIC value for Substance A • MICB is the MIC value for Substance B • MICmixture is the MIC value for the mixture of substances A and B • PA is the proportion of the substance A in the mixture • PB is the proportion of the substance B in the mixture
(§8) A Synergy Index (SI) with a value lower than 1 indicates a synergistic effect of the mixture that has been tested. Values higher than 1 indicate the absence of a synergistic effect.
(§9) For mixtures for which no MIC value has been determined, the calculation of an SI is not applicable (marked as n.a. in the following tables).

In experiment [2] the test system is Candida albicans. To be noted: lowest concentration with complete growth inhibition, C. albicans; for MIC: Candida albicans, read-out: MIC in ppm Candida albicans. The protocol: as §1, §2, §3, §4, §5, §6, §7, §8, §9
The test system of experiment [3] is Escherichia coli. The conditions noted are these: lowest concentration with complete growth inhibition, E. coli; for MIC: Escherichia coli, read-out: MIC in ppm Escherichia coli. The protocol: as §1, §2, §3, §4, §5, §6, §7, §8, §9
Experiment [4] has as its system Pseudomonas aeruginosa. The conditions noted are these: lowest concentration with complete growth inhibition, P. aeruginosa; for MIC: Pseudomonas aeruginosa, read-out: MIC in ppm Pseudomonas aeruginosa. The protocol: as §1, §2, §3, §4, §5, §6, §7, §8, §9
The test system of experiment [5] is Staphylococcus aureus. To be noted: lowest concentration with complete growth inhibition, S. aureus; for MIC: Staphylococcus aureus, read-out: MIC in ppm Staphylococcus aureus. The protocol: as §1, §2, §3, §4, §5, §6, §7, §8, §9

Where only a bound is given, the exact number is not on record here.

The term MIC denotes the lowest concentration found to suppress growth.

For `CCOC(=O)CNC1=C/C(=N/c2ccccc2)CC(C)(C)C1` [MAA-1], the minimal inhibitory concentration (MIC) in experiment [1] was 20 mg/mL; in experiment [2] it was 7.5 mg/mL; in experiment [3], 2.5 mg/mL; in experiment [4], greater than 25 mg/mL; in experiment [5], 2.5 mg/mL.
As to `COc1ccc(/N=C2\CC(C)(C)CC3=C2SCC(C(=O)O)N3)cc1OC` (stereo not drawn) [MAA-13, 8-((3,4-dimethoyxphenyl)imino)-6,6-dimethyl-3,4,5,6,7,8-hexahydro-2-H-benzol[b][1,4]thiazine-3-carboxylic acid], the minimal inhibitory concentration (MIC) in experiment [1] was greater than 30 mg/mL; in experiment [2], 25 mg/mL; in experiment [3], greater than 25 mg/mL; in experiment [4], greater than 30 mg/mL; in experiment [5], 25 mg/mL.
For the compound `CC1(C)CC(NCC(=O)O)=C/C(=N/c2ccccc2)C1` [MAA-20, 2-[(5,5-dimethyl-3-phenylimino-cyclohexen-1-yl)amino]acetic acid], the minimum inhibitory concentration (MIC) is greater than 30 mg/mL in experiment [1]; greater than 25 mg/mL in experiment [2]; 15 mg/mL in experiment [3]; greater than 30 mg/mL in experiment [4]; greater than 25 mg/mL in experiment [5].
Regarding `CC(=O)c1ccc(O)cc1` [4-Hydroxy-acetophenone, 4-Hydroxyacetophenone], in experiment [1], the “MIC in ppm Aspergillus brasiliensis” value is given as 2,500 ppm. Also, the “MIC in ppm Candida albicans” value in experiment [2] is on record as 6,000 ppm. The “MIC in ppm Escherichia coli” value in experiment [3] was 2,500 ppm. In addition, in experiment [4], the “MIC in ppm Pseudomonas aeruginosa” value is given as 4,000 ppm. The “MIC in ppm Staphylococcus aureus” value in experiment [5] is recorded as 5,000 ppm.
On to `CCCC(O)CO` (stereo not drawn) [1,2-Pentanediol], for which the minimum inhibitory concentration (MIC) in experiment [1] came to 17.5 mg/mL; in experiment [2], 12.5 mg/mL; in experiment [3], 15 mg/mL; in experiment [4], 30 mg/mL; in experiment [5], 35 mg/mL.
In the case of `CCCCC(CC)COCC(O)CO` (stereo not drawn) [Ethylhexylglycerin], the “MIC in ppm Aspergillus brasiliensis” value in experiment [1] is 1,000 ppm. Also, in experiment [2], the “MIC in ppm Candida albicans” value was 1,000 ppm. The “MIC in ppm Escherichia coli” value in experiment [3] is given as 2,500 ppm. Also, in experiment [4], the “MIC in ppm Pseudomonas aeruginosa” value is given as 50,000 ppm. For the same compound, the “MIC in ppm Staphylococcus aureus” value in experiment [5] is 1,000 ppm.
